Results on four compounds are retold here after patent publication US20130045952A1, “ABA Receptor Agonists for Increased Plant Stress Resistance” (Van Andel Research Institute, priority 2011, published 2013).

What all share (type): biochemical
One test addresses T1, His6-PYL1 / biotin-PP2C (Arabidopsis thaliana, UniProt Q8VZS8).
T1 construct: PYL1 (residues 36-211), PYL2 (residues 14-188), and HAB1 (residues 172-511) were prepared as recombinant proteins in E. coli; made in house; host or cells: E. coli
T1 sequence (Q8VZS8 36-211): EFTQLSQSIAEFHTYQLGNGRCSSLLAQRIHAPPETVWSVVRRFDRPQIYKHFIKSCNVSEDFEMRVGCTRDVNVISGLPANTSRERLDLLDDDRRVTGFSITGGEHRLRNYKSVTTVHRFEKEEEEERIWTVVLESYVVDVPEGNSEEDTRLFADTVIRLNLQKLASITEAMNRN
In words: AlphaScreen luminescence proximity assay, PYL1-PP2C interaction. The following applies: for Stimulation of the interaction between PYL1 and PP2C (binding signal): 100 nM His6-PYL1, 100 nM biotin-PP2C, 100 μM agonist, normalized against a pyrabactin control. How it is done:
(§1) Mutant proteins were expressed as H6GST-fusion proteins and purified by glutathione sepharose chromatography. Protein-protein interactions were determined by luminescence proximity AlphaScreen assay. Biotinylated PP2C proteins for the luminescence proximity assay were generated by in vivo biotinylation of avitag-PP2C fusion proteins. PP2C phosphatase activity was measured by phosphate release from a SnRK2.6 phosphoprotein.
(§2) Interactions between PYR/PYL and PP2Cs were assessed by luminescence-proximity AlphaScreen technology (Perkin Elmer). Briefly, biotinylated PP2Cs were attached to streptavidin-coated donor beads, and H6-tagged PYR/PYL receptors were attached to nickel-chelated acceptor beads. The donor and acceptor beads were brought into proximity by the interactions between PYR/PYLs and PP2Cs, which were measured with and without ligands. When excited by a laser beam of 680 nm, the donor beam emits singlet oxygen that activates thioxene derivatives in the acceptor beads, which releases photons of 520-620 nm as the binding signal. The experiments were conducted with 100 nM of PP2Cs and PYR/PYL proteins in the presence of 5 ug/ml donor and acceptor beads in a buffer of 50 mM MOPS, pH7.4, 50 mM NaF, […], and 0.1 mg/ml bovine serum albumin. The results were based on an average of three experiments with standard errors typically less than 10% of the measurements.
(§3) Values were determined in different experiments and normalized against a pyrabactin control. Blank spaces mean no experimental data is available. Key (photon counts (binding signal units) in Alphascreen luminescence proximity assay): “+++ is >75,000; ++ is 25,000−75,000; + is <25,000.
For orientation: Bead proximity is the source of the signal in Alpha formats.

Another test has as its target T2, His6-PYR1 / biotin-HAB1 (Arabidopsis thaliana, UniProt O49686).
T2 construct: made in house; host or cells: E. coli (stated for the PP2Cs; not expressly for PYR1)
T2 sequence (O49686 1-191): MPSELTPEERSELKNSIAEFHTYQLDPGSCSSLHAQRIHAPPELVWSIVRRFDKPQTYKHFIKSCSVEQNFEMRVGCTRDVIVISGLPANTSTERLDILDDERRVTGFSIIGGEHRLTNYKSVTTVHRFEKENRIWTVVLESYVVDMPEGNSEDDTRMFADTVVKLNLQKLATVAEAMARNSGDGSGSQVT
T2 sequence (Q9CAJ0 172-511 partner limits assumed): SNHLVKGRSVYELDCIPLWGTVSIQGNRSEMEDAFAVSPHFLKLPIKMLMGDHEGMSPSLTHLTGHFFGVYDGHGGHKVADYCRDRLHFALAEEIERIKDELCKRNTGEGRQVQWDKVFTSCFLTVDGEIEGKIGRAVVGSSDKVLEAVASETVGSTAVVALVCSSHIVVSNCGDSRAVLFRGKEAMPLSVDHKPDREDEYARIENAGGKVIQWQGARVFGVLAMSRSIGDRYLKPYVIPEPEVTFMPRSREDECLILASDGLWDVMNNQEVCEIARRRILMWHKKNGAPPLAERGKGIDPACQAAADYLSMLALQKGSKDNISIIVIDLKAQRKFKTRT
In words: AlphaScreen dose response, PYR1-HAB1 interaction. Particulars: 100 nM His6-PYR1, 100 nM biotin-PP2C, 0-100 μM agonist; from dose response curves. The protocol:
as §2
The results shown in Table 5b were calculated from the dose response curves of the dependence of the interaction between 100 nM His6-PYR1 and 100 nM biotin-PP2C on the presence of 0-100 μM agonists determined by AlphaScreen luminescence proximity assay. Key (EC50 in μM): ++++=<5.0 μM; +++=5-10 μM; ++=10-20 μM; and +=>20-60 μM.

Another test addresses T3, ABI2 (Arabidopsis thaliana, UniProt O04719+O49686).
T3 construct: ABI1 (residues 117-434) and ABI2 (residues 101-423) were expressed as H6Sumo fusion proteins; H6Sumo (N); made in house; host or cells: E. coli BL21
T3 sequence (O04719 101-423 limits assumed): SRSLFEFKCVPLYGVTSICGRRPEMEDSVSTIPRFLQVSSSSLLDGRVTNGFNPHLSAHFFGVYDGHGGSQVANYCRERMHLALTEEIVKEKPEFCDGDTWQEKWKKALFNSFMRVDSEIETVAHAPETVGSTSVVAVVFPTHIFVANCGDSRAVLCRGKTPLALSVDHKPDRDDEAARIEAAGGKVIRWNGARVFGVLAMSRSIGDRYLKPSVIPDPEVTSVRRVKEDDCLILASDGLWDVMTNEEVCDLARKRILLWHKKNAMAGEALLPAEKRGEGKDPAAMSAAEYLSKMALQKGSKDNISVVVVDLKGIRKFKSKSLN
T3 sequence (O49686 1-191): T2 sequence (O49686 1-191)
In words: PP2C phosphatase activity assay, ABI2. Particulars: 200 nM PP2C; SnRK2.6 phosphopeptide substrate; None = 100. The protocol: as §1
PP2Cs and PYR/PYL proteins were pre-incubated at the indicated concentrations in 50 mM imidazole, pH 7.2, 5 mM MgCl2, 0.1% β-mercaptoethanol and 0.5 mg/ml BSA for 30 min at room temperature. Reactions were started by addition of 100 μM of a phosphopeptide corresponding to amino acids 170-180 of SnRK2.6 (HSQPK^pSTVGTP). This peptide is phosphorylated at a single residue corresponding to Ser175 in SnRK2.6, whose phosphorylation is required for SnRK2.6 kinase activity^32. Phosphate release from ^pS175 from the phosphopeptide was determined by colorimetric assay (BioVision).

The target of a further test is T4, His6-PYR1 / biotin-PP2C (Arabidopsis thaliana, UniProt O49686).
T4 construct: made in house; host or cells: E. coli is stated for PYL1, PYL2 and the PP2Cs, not expressly for PYR1
T4 sequence (O49686 1-191): T2 sequence (O49686 1-191)
In words: AlphaScreen luminescence proximity assay, PYR1-PP2C interaction. The following applies: for Stimulation of the interaction between PYR1 and PP2C (binding signal): 100 nM His6-PYR1, 100 nM biotin-PP2C, 100 μM agonist, normalized against a pyrabactin control. How it is done: as §1, §2, §3

[1] abbreviates: purified proteins in vitro, HAB1, ABI1, ABI2.

In the case of `O=C1Nc2ccc(S(=O)(=O)NCc3ccccn3)c3cccc1c23` [Compound 1], the “Stimulation of the interaction between PYL1 and PP2C (binding signal)” value at His6-PYL1 / biotin-PP2C is reported as “+ (+ is <25,000)”. This compound yielded an EC50 at His6-PYR1 / biotin-HAB1 of 20 to 60 µM. For the same compound, the “% Phosphatase Activity ABI2” value at ABI2 was 3.2 ± 0.7%. The “Stimulation of the interaction between PYR1 and PP2C (binding signal)” value at His6-PYR1 / biotin-PP2C is on record as “+ (+ is <25,000)”.
`CCOC(=O)CNS(=O)(=O)c1ccc2c3c(cccc13)C(=O)N2CC` [Compound 2]: the “Stimulation of the interaction between PYL1 and PP2C (binding signal)” value on His6-PYL1 / biotin-PP2C is on record as “+ (+ is <25,000)”. In addition, the EC50 on His6-PYR1 / biotin-HAB1 fell in the range of 5 to 10 µM. The “% Phosphatase Activity ABI2” value on ABI2 worked out at 3.8 ± 0.6%. For the same compound, at His6-PYR1 / biotin-PP2C, the “Stimulation of the interaction between PYR1 and PP2C (binding signal)” value is recorded as “+++ (+++ is >75,000)”.
Consider `CCN1C(=O)c2cccc3c(S(=O)(=O)NC[C@@H]4CCCO4)ccc1c23` [Compound 11], for which the “Stimulation of the interaction between PYL1 and PP2C (binding signal)” value on His6-PYL1 / biotin-PP2C is given as “+ (+ is <25,000)”. In addition, the concentration for a half-maximal effect (EC50) at His6-PYR1 / biotin-HAB1 lay in the range of 5 to 10 µM. On ABI2, the “% Phosphatase Activity ABI2” value is on record as 4.5 ± 0.5%. Besides, the “Stimulation of the interaction between PYR1 and PP2C (binding signal)” value at His6-PYR1 / biotin-PP2C is “+++ (+++ is >75,000)”.
In the case of `O=S(=O)(NCc1ccccn1)c1ccc(Br)c2ccccc12` [Pyrabactin, pyrabactin], on His6-PYL1 / biotin-PP2C (setting [1]), the “Promotion of PYL1 interaction with the three PP2Cs” value was “promoted interaction”. Further, the “Agonist activity in wildtype PYL1” value at His6-PYL1 / biotin-PP2C (wildtype PYL1) is recorded as “very weak”. The 50% effective concentration (EC50) on His6-PYR1 / biotin-HAB1 is < 5 µM. For the same compound, at ABI2, the “% Phosphatase Activity ABI2” value is listed as 1.5 ± 0.8%. The “Promotion of PYR1 interaction with the three PP2Cs” value at His6-PYR1 / biotin-PP2C (setting [1]) was “strongly promoted”.

In general, EC50 refers to the concentration needed to bring the measured effect to its halfway point.
